Values quoted from earlier work as cited in patent US9492406B2, “Pharmaceutical composition” (IPCA Laboratories Limited, priority 2012, dated 2016).
Read-outs that look alike come from different tables or passages of the source.

What was measured:
[1] = not given; remark: listed apart in the source
[2] = theophylline products of US2008248117

For O=C1C(O)=C([C@H]2CC[C@H](c3ccc(Cl)cc3)CC2)C(=O)c2ccccc21 [Atovaquone, trans-2-[4-(4-chlorophenyl)cyclohexyl]-3-hydroxy-1,4-naphthoquinone], the bioavailability (microfluidized microparticles supplied as suspension, with fat diet) is listed as 46-48%, the bioavailability (oral non-sized suspension) is listed as “about 23%” and the bioavailability (oral non-sized suspension, under fat fed condition) is listed as 46-48%. The bioavailability (tablet formulations) was about 12%.

For NC(=O)N1c2ccccc2C=Cc2ccccc21 [Carbamazepine crystals, Carbamazepine], the “Release after 15 min in %” value ([1]; carbamazepine products of US2008248117, 15 min) is listed as 22% and the “Release after 30 min in %” value ([1]; carbamazepine products of US2008248117, 30 min) is listed as 53%.

For Cn1c(=O)c2[nH]cnc2n(C)c1=O [Theophylline crystals, Theophylline], the “Release after 15 min in %” value ([1]; theophylline products of US2008248117, 15 min) is given as 34%, the “Release after 30 min in %” value ([1]; theophylline products of US2008248117, 30 min) is given as 78% and the Resistance to crushing [2] is given as 140.
